Reference: patent US10231967B2, “Compounds and their use as BACE inhibitors” (ASTRAZENECA AB, priority 2010, dated 2019)

system: sAPPβ release in SH-SY5Y cells; assay: sAPPβ release assay; format: cell-based; details: Homo sapiens, SH-SY5Y, 17 h, compounds incubated 17 h, MSD detection
Method: Thaw cells and seed at a conc. of around 10000 cells/well in DMEM/F-12 with Glutamax, 10% FCS and 1% non-essential amino acids to a 384-well tissue culture treated plate, 100 μL cell susp/well. […] The cell medium was removed, followed by addition of 30 μL compound diluted in DMEM/F-12 with Glutamax, 10% FCS, 1% non-essential amino acids and 1% PeSt to a final conc. of 1% DMSO. The compounds were incubated with the cells for 17 h (overnight) at 37° C., 5% CO2. Meso Scale Discovery (MSD) plates were used for the detection of sAPPβ release. MSD sAPPβ plates were blocked in 1% BSA in Tris wash buffer (40 μL/well) for 1 h on shake at r.t. and washed 1 time in Tris wash buffer (40 μL/well). 20 μL of medium was transferred to the pre-blocked and washed MSD sAPPβ microplates, and the cell plates were further used in an ATP assay to measure cytotoxicity. The MSD plates were incubated with shaking at r.t. for 2 h and the media discarded. 10 μL detection antibody was added (1 nM) per well followed by incubation with shaking at r.t. for 2 h and then discarded. 40 μL Read Buffer was added per well and the plates were read in a SECTOR Imager.

| SMILES | IC50 [nM] |
| --- | --- |
| COC1CCC2(CC1)Cc1ccc(Br)cc1[C@@]21N=C(C)C(N)=N1 (single isomer, unassigned) [Example 19 Isomer 1] | 18 |
| CC1=NC2(CC(C3CCCOC3)Oc3ccc(Br)cc32)N=C1N (single isomer, unassigned) [Example 47 Isomer 2, 6-Bromo-5′-methyl-2-(tetrahydro-2H-pyran-3-yl)spiro[chromane-4,2′-imidazole]-4′-amine] | 657 |
| CC1=NC2(N=C1N)c1cc(Br)ccc1CC21CCC(F)(F)CC1 (stereo not drawn) [Example 27, 6′-Bromo-4,4-difluoro-5″-methyl-3′H-dispiro[cyclohexane-1,2′-indene-1′,2″-imidazol]-4″-amine] | 399 |

Other lines, results leading:

| IC50 [nM] | SMILES |
| --- | --- |
| 501 | CC1=NC2(CCOc3ccc(NC(=O)c4ccc(Cl)cn4)cc32)N=C1N (stereo not drawn) [Example 13a, N-(4′-Amino-5′-methylspiro[chroman-4,2′-imidazole]-6-yl)-5-chloropicolinamide] |
| 160 | CC1=NC2(CCOc3ccc(NC(=O)c4ncc(Cl)cc4Cl)cc32)N=C1N (stereo not drawn) [Example 13i, N-(4′-Amino-5′-methylspiro[chroman-4,2′-imidazole]-6-yl)-3,5-dichloropicolinamide] |
| 7.1 | CO[C@H]1CC[C@]2(CC1)Cc1ccc(C#CC(C)(C)C)cc1C21N=C(C)C(N)=N1 (stereo partly drawn) [Example 20h] |
| 8.6 | CO[C@H]1CC[C@]2(CC1)Cc1ccc(NC(=O)c3ccc(C(F)(F)F)cn3)cc1C21N=C(C)C(N)=N1 (stereo partly drawn) [Example 20k, N-[(1r,4r)-4″-Amino-4-methoxy-5″-methyl-3′H-dispiro[cyclohexane-1,2′-indene-1′,2″-imidazol]-6′-yl]-5-(trifluoromethyl)pyridine-2-carboxamide] |
| 9.2 | CO[C@H]1CC[C@]2(CC1)Cc1ccc(NC(=O)c3ncc(Cl)cc3Cl)cc1C21N=C(C)C(N)=N1 (stereo partly drawn) [Example 20o, N-[(1r,4r)-4″-Amino-4-methoxy-5″-methyl-3′H-dispiro[cyclohexane-1,2′-indene-1′,2″-imidazol]-6′-yl]-3,5-dichloropyridine-2-carboxamide] |
| 3.8 | CO[C@H]1CC[C@]2(CC1)Cc1ccc(NC(=O)c3ccc(Cl)cn3)cc1C21N=C(C)C(N)=N1 (stereo partly drawn) [Example 20q, N-[(1r,4r)-4″-Amino-4-methoxy-5″-methyl-3′H-dispiro[cyclohexane-1,2′-indene-1′,2″-imidazol]-6′-yl]-5-chloropyridine-2-carboxamide] |
| 0.63 | CO[C@H]1CC[C@]2(CC1)Cc1ccc(OCCC(F)(F)F)cc1C21N=C(C)C(N)=N1 (stereo partly drawn) [Example 20u, (1r,4r)-4-methoxy-5″-methyl-6′-(3,3,3-trifluoropropoxy)-3′H-dispiro[cyclohexane-1,2′-indene-1′,2″-imidazol]-4″-amine] |
| 109 | CC1=NC2(N=C1N)c1cc(-c3cncc(Cl)c3)ccc1CC21CCC(F)(F)CC1 (stereo not drawn) [Example 28c, 6′-(5-Chloropyridin-3-yl)-4,4-difluoro-5″-methyl-3′H-dispiro[cyclohexane-1,2′-indene-1′,2″-imidazol]-4″-amine] |

same assay, conditions: Homo sapiens, compounds incubated 17 h, MSD detection

| SMILES | IC50 [nM] |
| --- | --- |
| CC1=N[C@]2(N=C1N)c1cc(-c3cc(F)cc(C#N)c3)ccc1C[C@]21CC[C@@H](OC(F)F)CC1 (racemic) [Example 105, 3-[(1r,4r)-4″-Amino-4-(difluoromethoxy)-5″-methyl-3′H-dispiro[cyclohexane-1,2′-indene-1′,2″-imidazol]-6′-yl]-5-fluorobenzonitrile] | 9.7 |
| COc1cc(C#N)cc(-c2ccc3c(c2)[C@@]2(N=C(C)C(N)=N2)[C@]2(CC[C@H](OC(F)F)CC2)C3)c1 (racemic) [Example 106, 3-[(1r,4r)-4″-Amino-4-(difluoromethoxy)-5″-methyl-3′H-dispiro[cyclohexane-1,2′-indene-1′,2″-imidazol]-6′-yl]-5-methoxybenzonitrile] | 1.1 |
| COc1cc(C#N)cc(-c2ccc3c(c2)[C@@]2(N=C(C)C(N)=N2)[C@]2(CC[C@H](OC)CC2)C3)c1 (single isomer, unassigned) [Example 92 Isomer 1] | 0.27 |
| CC1=NC2(CCOc3ccc(-c4cc(Cl)cc(Cl)c4)cc32)N=C1N (stereo not drawn) [Example 1, 6-(3,5-Dichlorophenyl)-5′-methylspiro[chroman-4,2′-imidazol]-4′-amine] | 587 |
| CC1=NC2(CCOc3ccc(-c4cncc(Cl)c4)cc32)N=C1N (stereo not drawn) [Example 2, 6-(5-Chloropyridin-3-yl)-5′-methylspiro[chroman-4,2′-imidazol]-4′-amine] | 941 |
| CC1=NC2(CCOc3ccc(-c4cc(F)cc(F)c4)cc32)N=C1N (stereo not drawn) [Example 3, 6-(3,5-Difluorophenyl)-5′-methylspiro[chroman-4,2′-imidazol]-4′-amine] | 2880 |
| CC1=NC2(N=C1N)c1cc(Br)ccc1CC21CCC(OC(F)F)CC1 (stereo not drawn) [Example 15, 6′-Bromo-4-(difluoromethoxy)-5″-methyl-3′H-dispiro[cyclohexane-1,2′-indene-1′,2″-imidazol]-4″-amine] | 46 |

Next, values leading:

| IC50 [nM] | SMILES |
| --- | --- |
| 463 | CC1=NC2(CCOc3ccc(NC(=O)c4ccc(C(F)(F)F)cn4)cc32)N=C1N (stereo not drawn) [Example 13c, N-(4′-Amino-5′-methylspiro[chroman-4,2′-imidazole]-6-yl)-5-(trifluoromethyl)picolinamide] |
| 239 | CC#CCOc1ccc(C(=O)Nc2ccc3c(c2)C2(CCO3)N=C(C)C(N)=N2)nc1 (stereo not drawn) [Example 13d, N-(4′-amino-5′-methylspiro[chroman-4,2′-imidazole]-6-yl)-5-(but-2-ynyloxy)picolinamide] |
| 106 | CC#CCOc1cnc(C(=O)Nc2ccc3c(c2)C2(CCO3)N=C(C)C(N)=N2)cn1 (stereo not drawn) [Example 13e, N-(4′-Amino-5′-methylspiro[chroman-4,2′-imidazole]-6-yl)-5-(but-2-ynyloxy)pyrazine-2-carboxamide] |
| 0.78 | CC#Cc1ccnc(-c2ccc3c(c2)C2(N=C(C)C(N)=N2)[C@]2(CC[C@H](OC)CC2)C3)c1 (stereo partly drawn) [Example 20b, (1r,4r)-4-Methoxy-5″-methyl-6′-[4-(prop-1-yn-1-yl)pyridin-2-yl]-3′H-dispiro[cyclohexane-1,2′-indene-1′,2″-imidazol]-4″-amine] |
| 1.7 | CO[C@H]1CC[C@]2(CC1)Cc1ccc(-c3cc(C#N)cc(C#N)c3)cc1C21N=C(C)C(N)=N1 (stereo partly drawn) [Example 20c, 5-[(1r,4r)-4″-Amino-4-methoxy-5″-methyl-3′H-dispiro[cyclohexane-1,2′-indene-1′,2″-imidazol]-6′-yl]benzene-1,3-dicarbonitrile] |
| 3.3 | CO[C@H]1CC[C@]2(CC1)Cc1ccc(-c3cncc(F)c3)cc1C21N=C(C)C(N)=N1 (stereo partly drawn) [Example 20f, (1r,4r)-6′-(5-Fluoropyridin-3-yl)-4-methoxy-5″-methyl-3′H-dispiro[cyclohexane-1,2′-indene-1′,2″-imidazol]-4″-amine] |
| 91 | CO[C@H]1CC[C@]2(CC1)Cc1ccc(NC(=O)c3ncc(Br)cn3)cc1C21N=C(C)C(N)=N1 (stereo partly drawn) [Example 20j, N-[(1r,4r)-4″-Amino-4-methoxy-5″-methyl-3′H-dispiro[cyclohexane-1,2′-indene-1′,2″-imidazol]-6′-yl]-5-bromopyrimidine-2-carboxamide] |
| 3.7 | CO[C@H]1CC[C@]2(CC1)Cc1ccc(NC(=O)c3oc4cc(Cl)ccc4c3C)cc1C21N=C(C)C(N)=N1 (stereo partly drawn) [Example 20n, N-[(1r,4r)-4″-Amino-4-methoxy-5″-methyl-3′H-dispiro[cyclohexane-1,2′-indene-1′,2″-imidazol]-6′-yl]-6-chloro-3-methyl-1-benzofuran-2-carboxamide] |
| 1.2 | CO[C@H]1CC[C@]2(CC1)Cc1ccc(OCCCF)cc1C21N=C(C)C(N)=N1 (stereo partly drawn) [Example 20v] |
| 5.7 | CO[C@H]1CC[C@]2(CC1)Cc1ccc(NC(=O)c3ncc(Cl)cc3C)cc1C21N=C(C)C(N)=N1 (stereo partly drawn) [Example 20w, N-[(1r,4r)-4″-Amino-4-methoxy-5″-methyl-3′H-dispiro[cyclohexane-1,2′-indene-1′,2″-imidazol]-6′-yl]-5-chloro-3-methylpyridine-2-carboxamide] |
| 29 | CO[C@H]1CC[C@]2(CC1)Cc1ccc(NC(=O)c3ccc(F)cn3)cc1C21N=C(C)C(N)=N1 (stereo partly drawn) [Example 20x, N-[(1r,4r)-4″-Amino-4-methoxy-5″-methyl-3′H-dispiro[cyclohexane-1,2′-indene-1′,2″-imidazol]-6′-yl]-5-fluoropyridine-2-carboxamide] |
| 1.2 | CC#Cc1cc(-c2ccc3c(c2)C2(N=C(C)C(N)=N2)[C@]2(CC[C@H](OC)CC2)C3)ccn1 (stereo partly drawn) [Example 20y, (1r,4r)-4-Methoxy-5″-methyl-6′-[2-(prop-1-yn-1-yl)pyridin-4-yl]-3′H-dispiro[cyclohexane-1,2′-indene-1′,2″-imidazol]-4″-amine] |
| 53 | CC1=NC2(N=C1N)c1cc(-c3cccc(Cl)c3)ccc1CC21CCOCC1 (stereo not drawn) [Example 26a, 6′-(3-Chlorophenyl)-5-methyl-2″,3″,5″,6″-tetrahydro-3′H-dispiro[imidazole-2,1′-indene-2′,4″-pyran]-4-amine] |
| 140 | CC1=NC2(N=C1N)c1cc(-c3ccc(F)c(Cl)c3)ccc1CC21CCOCC1 (stereo not drawn) [Example 26c, 6′-(3-Chloro-4-fluorophenyl)-5-methyl-2″,3″,5″,6″-tetrahydro-3′H-dispiro[imidazole-2,1′-indene-2′,4″-pyran]-4-amine] |
| 89 | CC1=NC2(N=C1N)c1cc(NC(=O)c3ccc(Cl)cn3)ccc1CC21CCC(F)(F)CC1 (stereo not drawn) [Example 28d, N-(4″-Amino-4,4-difluoro-5″-methyl-3′H-dispiro[cyclohexane-1,2′-indene-1′,2″-imidazol]-6′-yl)-5-chloropyridine-2-carboxamide] |
